ChEMBL document CHEMBL1159326, “Three new homoisoflavanone glycosides from the bulbs of Ornithogalum caudatum” (J Nat Prod, 2002)
Calls of active or inactive are those of the source. The calls are words filed in the database; no cut-off is given here.

Tests used:
P388 = test: Antitumor activity in mouse P388 cells; type: functional, cell-based
A549 = test: Antitumor activity in human A549 cells; type: functional, cell-based

## COc1ccc(C[C@]2(O)COc3cc(OC)cc(O[C@@H]4O[C@H](CO)[C@@H](O)[C@H](O)[C@H]4O)c3C2=O)cc1
P388
  Activity: inactive
A549
  Activity: inactive

## COc1ccc(C[C@]2(O)COc3cc(OC)cc(O[C@@H]4O[C@H](CO)[C@@H](O)[C@H](O)[C@H]4O[C@@H]4O[C@@H](C)[C@H](O)[C@@H](O)[C@H]4O)c3C2=O)cc1
P388
  Activity: inactive
A549
  Activity: inactive

## COc1ccc(C[C@]2(O)COc3cc(OC)cc(O[C@@H]4O[C@H](CO[C@@H]5O[C@@H](C)[C@H](O)[C@@H](O)[C@H]5O)[C@@H](O)[C@H](O)[C@H]4O)c3C2=O)cc1
P388
  Activity: inactive
A549
  Activity: inactive
